Measurements reported in patent US20100168038A1, “USE OF COMPOUNDS IN COMBINATION WITH GAMMA-IRRADIATION FOR THE TREATMENT OF CANCER” (priority 2006, published 2010).
“And” between values parts separate entries of the source, which are not always exact repeats. Identical values can stand only once. Residues, ends and D or L forms follow the SMILES beside them.

Target: T1, TPP II (Mus musculus, UniProt Q64514)
T1 construct: 1 ug of high molecular weight protein was used as enzyme in peptidase assays; endogenous in cells
Test: TPP II peptidase assay: cleavage of fluorogenic substrate AAF-AMC by enriched TPP II
Format: biochemical
Settings: for cleavage of AAF-AMC in presence of compound, mean: mean of 3 readings; for cleavage of AAF-AMC in presence of compound: single reading
Protocol: In one non-limiting example of purification of TPP II, 100×10^6 cells (such as EL-4 cells) were sedimented and lysed by vortexing in glass beads and homogenisation buffer (50 mM Tris Base pH 7.5, 250 mM Sucrose, 5 mM MgCl2, 1 mM DTT). Cellular lysates were subjected to differential centrifugation; first the cellular homogenate was centrifuged at 14,000 rpm for 15 min, and then the supernatant was transferred to ultra-centrifugation tubes. Next the sample was ultra-centrifugated at 100,000×g for 1 hour, and the supernatant (denoted as cytosol in most biochemical literature) was subjected to 100,000×g centrifugation for 5 hours, which sedimented high molecular weight cytosolic proteins/protein complexes. The resulting pellet dissolved in 50 mM Tris Base pH 7.5, 30% Glycerol, 5 mM MgCl2, and 1 mM DTT, and 1 ug of high molecular weight protein was used as enzyme in peptidase assays.
It is possible to test the activity of TPP II using for example the substrate AAF-AMC (Sigma, St. Louis, Mo.). This may for example be used at 100 uM concentration in 100 ul of test buffer composed of 50 mM Tri Base pH 7.5, 5 mM MgCl2 and 1 mM DTT. It is possible to stop reactions using dilution with 900 ul 1% SDS solution. Cleavage activity may be measured for example by emission at 460 nm in a LS50B Luminescence Spectrometer (Perkin Elmer, Boston, Mass.).
Protein Purification, Peptidase Assays and Analysis of DNA Fragmentation. 100×10^6 cells were sedimented and lysed by vortexing in glass beads and homogenisation buffer (50 mM Tris Base pH 7.5, 250 mM Sucrose, 5 mM MgCl2, 1 mM DTT). Cellular lysates were submitted to differential centrifugation where a supernatant from a 1 hour centrifugation at 100,000×g (cytosol) was submitted to 100,000×g centrifugation for 3-5 hours, which sedimented high molecular weight cytosolic proteins/protein complexes. The resulting pellet dissolved in 50 mM Tris Base pH 7.5, 30% Glycerol, 5 mM MgCl2, and 1 mM DTT, and 1 micro-g of high molecular weight protein was used as enzyme in peptidase assays or in Western blotting for TPP II expression. To test the activity of TPP II we used the substrate AAF-AMC (Sigma, St. Louis, Mo.), at 100 micro-M concentration in 100 micro-l of test buffer composed of 50 mM Tri Base pH 7.5, 5 mM MgCl2 and 1 mM DTT. Cleavage activity was measured by emission at 460 nm in a LS50B Luminescence Spectrometer (Perkin Elmer, Boston, Mass.). For analysis of DNA fragmentation cells were seeded in 12-well plates at 10^6 cells/ml and exposed to 25 micro-M etoposide, a DNA topoisomerase II inhibitor commonly used as an apoptosis-inducing agent, to starvation (50% PBS). Cells were seeded at 10^6 cells/ml in 12-well plates and incubated for the indicated times, usually 18-24 hours. DNA from EL-4 control and adapted cells was purified by standard chloroform extraction, and 2.5 micro-g of DNA was loaded on 1.8% agarose gel for detection of DNA from apoptotic cells.
TPP II protein was enriched, and then a TPP II-preferred fluorogenic substrate AAF-AMC was used. 100×10^6 cells were sedimented and lysed by vortexing in glass beads and homogenisation buffer (50 mM Tris Base pH 7.5, 250 mM Sucrose, 5 mM MgCl2, 1 mM DTT). Cellular lysates were subjected to differential centrifugation; first the cellular homogenate was centrifuged at 14,000 rpm for 15 min, and then the supernatant was transferred to ultra-centrifugation tubes. Next the sample was ultra-centrifugated at 100,000×g for 1 hour, and the supernatant (denoted as cytosol in most biochemical literature) was subjected to 100,000×g centrifugation for 5 hours, which sedimented high molecular weight cytosolic proteins/protein complexes.

T1 sequence (Q64514 2-1262 limits assumed): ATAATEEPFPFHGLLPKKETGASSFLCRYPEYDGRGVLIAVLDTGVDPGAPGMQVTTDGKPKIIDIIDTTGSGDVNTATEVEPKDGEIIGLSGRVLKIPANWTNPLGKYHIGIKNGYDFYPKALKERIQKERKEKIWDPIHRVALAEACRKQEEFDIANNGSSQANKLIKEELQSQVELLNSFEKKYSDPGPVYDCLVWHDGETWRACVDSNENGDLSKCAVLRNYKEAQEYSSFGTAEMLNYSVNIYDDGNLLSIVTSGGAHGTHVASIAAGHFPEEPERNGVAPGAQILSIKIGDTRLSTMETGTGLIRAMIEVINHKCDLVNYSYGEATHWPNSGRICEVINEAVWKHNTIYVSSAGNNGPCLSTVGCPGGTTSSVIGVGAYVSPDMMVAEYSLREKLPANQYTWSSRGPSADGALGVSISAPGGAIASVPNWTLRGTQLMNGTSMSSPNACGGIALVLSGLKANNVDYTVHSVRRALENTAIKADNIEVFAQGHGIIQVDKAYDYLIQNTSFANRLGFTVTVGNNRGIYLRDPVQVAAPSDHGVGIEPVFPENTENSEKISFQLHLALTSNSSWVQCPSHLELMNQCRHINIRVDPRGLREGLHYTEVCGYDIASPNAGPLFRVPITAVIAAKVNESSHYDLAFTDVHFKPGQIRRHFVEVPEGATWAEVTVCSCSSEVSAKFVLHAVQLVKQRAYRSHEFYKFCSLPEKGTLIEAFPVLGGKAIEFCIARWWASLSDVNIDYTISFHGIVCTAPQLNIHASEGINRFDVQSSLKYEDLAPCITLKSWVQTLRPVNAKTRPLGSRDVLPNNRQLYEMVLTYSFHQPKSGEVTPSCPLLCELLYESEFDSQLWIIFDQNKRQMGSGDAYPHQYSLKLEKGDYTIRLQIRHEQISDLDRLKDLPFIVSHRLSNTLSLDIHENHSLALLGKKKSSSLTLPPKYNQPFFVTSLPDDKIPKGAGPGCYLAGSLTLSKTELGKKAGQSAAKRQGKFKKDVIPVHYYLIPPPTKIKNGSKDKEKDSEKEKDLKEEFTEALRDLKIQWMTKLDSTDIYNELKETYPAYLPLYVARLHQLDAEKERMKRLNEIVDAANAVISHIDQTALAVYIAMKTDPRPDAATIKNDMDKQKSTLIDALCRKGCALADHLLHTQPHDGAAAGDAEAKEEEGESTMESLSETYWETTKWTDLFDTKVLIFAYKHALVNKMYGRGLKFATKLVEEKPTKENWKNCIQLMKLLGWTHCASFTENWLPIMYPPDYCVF

SMILES: CC(C)C[C@H](NC(=O)CNC(=O)OCc1ccccc1)C(=O)N[C@@H](C)C(=O)O [Z-GLA-OH, Z-Gly-Leu-Ala-OH] (HELM PEPTIDE1{[O=C(OCc1ccccc1)[*:2]].G.L.A}$$$$V2.0)
- TPPII inhibition, in words: efficiently inhibited TPPII
- cleavage of AAF-AMC in presence of compound, mean (compound 1 nM): 32.85 fluorometric units
- cleavage of AAF-AMC in presence of compound (compound 1 nM): 32.54 fluorometric units and 32.61 fluorometric units and 33.41 fluorometric units
- cleavage of AAF-AMC in presence of compound, mean (compound 10 nM): 22.70 fluorometric units
- cleavage of AAF-AMC in presence of compound (compound 10 nM): 21.74 fluorometric units and 21.93 fluorometric units and 24.44 fluorometric units
- cleavage of AAF-AMC in presence of compound, mean (compound 100 nM): 14.35 fluorometric units
- cleavage of AAF-AMC in presence of compound (compound 100 nM): 14.43 fluorometric units and 14.26 fluorometric units and 14.37 fluorometric units
- cleavage of AAF-AMC in presence of compound, mean (compound 1 uM): 11.60 fluorometric units
- cleavage of AAF-AMC in presence of compound (compound 1 uM): 11.43 fluorometric units and 11.9 fluorometric units and 11.46 fluorometric units
- cleavage of AAF-AMC in presence of compound, mean (compound 10 uM): 7.21 fluorometric units
- cleavage of AAF-AMC in presence of compound (compound 10 uM): 6.47 fluorometric units and 7.66 fluorometric units and 7.49 fluorometric units
- cleavage of AAF-AMC in presence of compound, mean (compound 100 uM): 1.38 fluorometric units
- cleavage of AAF-AMC in presence of compound (compound 100 uM): 1.14 fluorometric units and 1.44 fluorometric units and 1.55 fluorometric units
- Ki (partially purified TPPII enzyme, fluorimetry, read-out: Ki50, inhibited TPPII cleavage of the substrate AAF-AMC): ~10 nM
